Source: article PMC4290084, “Multiplex Imaging and Cellular Target Identification of Kinase Inhibitors via an Affinity-Based Proteome Profiling Approach” (Scientific Reports, 2015)

Tests used:
Aurora kinase A (AKA) [1] = target: T1, Aurora kinase A (AKA) (Homo sapiens, UniProt O14965); test: Kinase-Glo in vitro kinase inhibition assay with recombinant AKA; assay type: biochemical
T1 construct: gene AURKA; recombinant AKA
T1 sequence (O14965 1-403): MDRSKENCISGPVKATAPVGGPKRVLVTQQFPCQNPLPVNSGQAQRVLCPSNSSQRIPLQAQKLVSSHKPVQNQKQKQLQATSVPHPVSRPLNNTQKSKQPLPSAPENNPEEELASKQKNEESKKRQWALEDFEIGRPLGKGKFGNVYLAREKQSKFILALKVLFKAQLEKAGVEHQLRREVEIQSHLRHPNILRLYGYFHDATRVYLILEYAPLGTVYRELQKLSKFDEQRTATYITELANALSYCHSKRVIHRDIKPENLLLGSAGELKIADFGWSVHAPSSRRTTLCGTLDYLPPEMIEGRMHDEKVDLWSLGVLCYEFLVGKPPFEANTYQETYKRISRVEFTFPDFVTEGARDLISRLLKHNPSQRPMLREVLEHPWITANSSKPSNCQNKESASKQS

Aurora kinase A (AKA) [2] = target: T1, Aurora kinase A (AKA); test: Kinase-Glo in vitro kinase inhibition assay with recombinant AKA; also photoaffinity labeling with PD/WB and IP in HeLa cells; assay type: biochemical

SMILES	IC50 (Aurora kinase A (AKA) [1]) [nM]	IC50 (Aurora kinase A (AKA) [2]) [nM]
COc1cc(Nc2ncc3c(n2)-c2ccc(Cl)cc2C(c2c(F)cccc2OC)=NC3)ccc1C(=O)NCCNC(=O)OC1CC/C=C/CCC1 (stereo not drawn) [MLN-3]	67.2 ± 0.4	
C#CCCC1(CCNC(=O)c2ccc(Nc3ncc4c(n3)-c3ccc(Cl)cc3C(c3c(F)cccc3OC)=NC4)cc2OC)N=N1 [MLN-2]		15.1 ± 0.5
C#CCNC(=O)c1ccc(Nc2ncc3c(n2)-c2ccc(Cl)cc2C(c2c(F)cccc2OC)=NC3)cc1OC [MLN-1]	23.3 ± 0.5	
